These results are taken from patent US7524930B2, “Tumor antigen” (Green Peptide Co., Ltd, priority 2003, dated 2009).

One assay relates to OK-CTLp or OK-CTL clone. In words: Recognition of peptide-pulsed T2 cells by OK-CTLp or OK-CTL clone (IFN-γ ELISA). In kind it is cell-based, human. (In general: An ELISA detects its analyte on a solid surface through an enzyme-linked reagent.)
The test system of assay [1] is human peripheral blood mononuclear cells (PBMC). Kind of assay: CTL induction by peptide from PBMC of HLA-A2-positive cancer patients and healthy individuals, IFN-γ against peptide-pulsed T2 cells (Example 6). In kind it is cell-based. To be noted: for INF-γ production: peptide-pulsed T2 cells; for Patients in whom peptide-specific HLA-A2-restricted CTL were induced from PBMC: sixteen HLA-A2-positive cancer patients. The method, then: For six peptides (P21, P22, P24, P26, P30, and P32) with a purity of 95% or higher among peptides from P20 to P32 derived from gene 7 and CPSF among the tumor antigen peptide obtained in Example 4, the activity to induce CTL in vitro from human peripheral blood mononuclear cells (PBMC) was examined using IFN-γ production as an indicator. PBMC used was prepared from each peripheral blood of sixteen HLA-A2-positive cancer patients (4 patients with pancreatic cancer, seven patients with stomach cancer, and 5 patients with colon cancer) and six healthy individuals. Specifically, 1×10^5 PBMC was added to each well of 96-well U-bottom type microculture plate (Nunc Corp.) and incubated together with 10 μM of each of the above-described peptides in 200 μl culture medium. The culture medium consisted of 45% RPMI-1640, 45% AIM-V (Invitrogen Corp.,) 10% fetal calf serum (FCS), 100U/ml of human interleukin-2, and […] MEM nonessential amino acid solution (Invitrogen Corp.). At day 4 and day 7 after the start of culturing, half of the culture medium was removed and replaced with the above-described composition containing each corresponding peptide. At day 10 after the start of culturing, the cells were collected and washed, followed by reacting with T2 cells, which were pulsed with each corresponding peptide, to measure the amount of IFN-γ produced.

The test system of assay [2] is Panc-1 pancreatic adenocarcinoma cell (HLA-A2). Kind of assay: 6-h 51Cr-releasing test of peptide-stimulated PBMC against Panc-1 (Example 6). In kind it is cell-based, human. The protocol: Meanwhile, the above-described cells cultured for 10 days after stimulation by the peptide were further cultured for 10 days. The cytotoxicity of the obtained cells against the Panc-1 pancreatic adenocarcinoma cell (HLA-A2) was measured by the standard 6-h ^51Cr-releasing test in an E/T ratio of 10:1. The results obtained are presented as % specific lysis (table 7). Together with this step, cytotoxicity against SSTW-9 tumor cell as the HLA-A2^− tumor cell was measured to use as a background that was subtracted from the above-described result.

The subject of assay [3] is peripheral blood mononuclear cells derived from a cancer patient. Kind of assay: CTL induction by peptide from autologous PBMC of cancer patient, IFN-γ production on recognition of target cells (Example 5). The assay is classed as cell-based, human. To be noted: for Recognition of tumor cells by PBMC stimulated in vitro with peptide (IFN-γ production): SW620, CA9-22 and Panc-1 HLA-A2+ tumor cells, result in words; for IFN-γ production from peripheral blood mononuclear cells in recognition of target cells: PBMC stimulated with 10 μM peptide. An excerpt: Among the peptides that were able to enhance IFN-γ production from the OK-CTLp or OK-CTL clone in Example 4, those from P1 to P19 were examined for their ability to induce CTL from peripheral blood mononuclear cells derived from a cancer patient. The method for inducing CTL by a peptide was according to the well-known method (J. Exp. Med., 187:277-288, 1998; Cancer Res., 59:4056-4063, 1999.) Specifically, autologous peripheral blood mononuclear cells (PBMC) derived from a cancer patient, from whom OK-CTLp was obtained, were incubated together with the peptide (10 μM.) The cells were re-stimulated at day 10 and 14 after the start of culturing, using autologous PBMCs as an antigen presenting cell (APC) which were pulsed with 10 μM of the same peptide for 2 h and exposed to irradiation (30 gray.) At day 21 after the start of culturing, the cells were collected to test for surface phenotype. In addition, the cells were examined for the recognition of various target cells, using IFN-γ production measured by ELISA when they were cultured together with the target cells as an indicator. As a target cells, SW620 cell, CA9-22 cell, and Panc-1 cell, which are the HLA-A2^+ tumor cells, were used.

For assay [4] the test system is unchanged. The assay is described as above. In kind it is cell-based, human. To be noted: PBMC stimulated with 10 μM peptide.
The mark [5] stands for this setting: concentration of peptide 0.1 μM.
[6] abbreviates: PBMC of colon cancer patient 12.
The mark [7] stands for this setting: PBMC of colon cancer patient 13.
[8] abbreviates: PBMC of colon cancer patient 14.
The mark [9] stands for this setting: PBMC of colon cancer patient 15.
The mark [10] stands for this setting: PBMC of colon cancer patient 16.
[11] abbreviates: PBMC of pancreatic cancer patient 1.
The mark [12] stands for this setting: PBMC of pancreatic cancer patient 2.
Where [13] appears, read: PBMC of pancreatic cancer patient 3.
The mark [14] stands for this setting: PBMC of pancreatic cancer patient 4.
The mark [15] stands for this setting: PBMC of stomach cancer patient 5.
The mark [16] stands for this setting: PBMC of stomach cancer patient 6.
Where [17] appears, read: PBMC of stomach cancer patient 7.
[18] abbreviates: PBMC of stomach cancer patient 8.
Where [19] appears, read: PBMC of stomach cancer patient 9.
The mark [20] stands for this setting: PBMC of stomach cancer patient 10.
The mark [21] stands for this setting: PBMC of stomach cancer patient 11.

For the sequence LIMLQNALT [Peptide P28], the IFN-γ production in the assay with OK-CTLp or OK-CTL clone (setting [5]) is 898 pg/mL; with OK-CTLp or OK-CTL clone (concentration of peptide 10 μM) it was 0 pg/mL; in the assay with OK-CTLp or OK-CTL clone (concentration of peptide 50 μM) it was 144 pg/mL.

As to “LLRRADFHV (Designed peptide having an ability to activate HLA-A2 restricted Cytotoxic T lymphocytes) [Peptide P26, Gene 7 1296-1304]”, the IFN-γ production with OK-CTLp or OK-CTL clone (setting [5]) turned out to be 141 pg/mL; with OK-CTLp or OK-CTL clone (concentration of peptide 1 μM), 418 pg/mL; in the assay on OK-CTLp or OK-CTL clone (concentration of peptide 10 μM), 1239 pg/mL; in the assay on OK-CTLp or OK-CTL clone (concentration of peptide 50 μM), 0 pg/mL. In addition, the INF-γ production in assay [1] (setting [6]) came to 0 pg/mL; in assay [1] (setting [7]), 0 pg/mL; in assay [1] (setting [8]) it was 0 pg/mL; in assay [1] (setting [9]), 40 pg/mL; in assay [1] (setting [10]), 45 pg/mL; in assay [1] (PBMC of healthy individual HD1), 0 pg/mL. The INF-γ production in assay [1] (PBMC of healthy individual HD2) came out at 0 pg/mL; in assay [1] (PBMC of healthy individual HD3), 0 pg/mL; in assay [1] (PBMC of healthy individual HD4), 0 pg/mL; in assay [1] (PBMC of healthy individual HD5) it was 13 pg/mL; in assay [1] (PBMC of healthy individual HD6), 0 pg/mL; in assay [1] (setting [11]), 0 pg/mL. Besides, the INF-γ production is 35 pg/mL in assay [1] (setting [12]); 0 pg/mL in assay [1] (setting [13]); 77 pg/mL in assay [1] (setting [14]); 53 pg/mL in assay [1] (setting [15]); 0 pg/mL in assay [1] (setting [16]); 0 pg/mL in assay [1] (setting [17]). For the same sequence, the INF-γ production in assay [1] (setting [18]) worked out at 11 pg/mL; in assay [1] (setting [19]) it was 8 pg/mL; in assay [1] (setting [20]), 0 pg/mL; in assay [1] (setting [21]) it was 0 pg/mL. The “Patients in whom peptide-specific HLA-A2-restricted CTL were induced from PBMC” value in assay [1] was determined as 31%. The “% specific lysis” value in assay [2] (PBMC of colon cancer patient 15, Panc-1, E/T 10:1) is listed as 12%; in assay [2] (PBMC of pancreatic cancer patient 2, Panc-1, E/T 10:1, SSTW-9 background subtracted), 36%; in assay [2] (PBMC of pancreatic cancer patient 4, Panc-1, E/T 10:1), 20%; in assay [2] (PBMC of stomach cancer patient 5, Panc-1, E/T 10:1), 11%.

With TMLPHHAGL [Peptide P25], the IFN-γ production with OK-CTLp or OK-CTL clone (setting [5]) was found to be 69 pg/mL; with OK-CTLp or OK-CTL clone (concentration of peptide 1 μM), 1569 pg/mL; in the assay on OK-CTLp or OK-CTL clone (concentration of peptide 10 μM), 25 pg/mL; in the assay with OK-CTLp or OK-CTL clone (concentration of peptide 50 μM) it was 122 pg/mL.

As for YQLPDWRLV [Peptide P29], the IFN-γ production with OK-CTLp or OK-CTL clone (setting [5]) turned out to be 0 pg/mL; with OK-CTLp or OK-CTL clone (concentration of peptide 10 μM), 86 pg/mL; with OK-CTLp or OK-CTL clone (concentration of peptide 50 μM) it was 362 pg/mL.

As to SLLYLNQSV [Peptide P20], the IFN-γ production turned out to be 344 pg/mL in the assay with OK-CTLp or OK-CTL clone (setting [5]), 643 pg/mL in the assay with OK-CTLp or OK-CTL clone (concentration of peptide 1 μM), 0 pg/mL with OK-CTLp or OK-CTL clone (concentration of peptide 10 μM) and 34 pg/mL in the assay with OK-CTLp or OK-CTL clone (concentration of peptide 50 μM).

As to LLLKYTEKL [Peptide P24], the IFN-γ production was determined as 728 pg/mL in the assay on OK-CTLp or OK-CTL clone (setting [5]), 103 pg/mL in the assay on OK-CTLp or OK-CTL clone (concentration of peptide 10 μM) and 2 pg/mL in the assay on OK-CTLp or OK-CTL clone (concentration of peptide 50 μM).

Consider “TQLATYSFEV (Designed peptide having an ability to activate HLA-A2 restricted Cytotoxic T lymphocytes) [Peptide P32, CPSF 456-465]”, for which the INF-γ production is 57 pg/mL in assay [1] (setting [6]); 0 pg/mL in assay [1] (setting [7]); 0 pg/mL in assay [1] (setting [8]); 0 pg/mL in assay [1] (setting [9]); 4 pg/mL in assay [1] (setting [10]); 0 pg/mL in assay [1] (PBMC of healthy individual HD1). Also, the INF-γ production in assay [1] (PBMC of healthy individual HD2), in assay [1] (PBMC of healthy individual HD3), in assay [1] (PBMC of healthy individual HD4), in assay [1] (PBMC of healthy individual HD5), in assay [1] (PBMC of healthy individual HD6) and in assay [1] (setting [11]) was 0 pg/mL each time. The INF-γ production in assay [1] (setting [12]) is 12 pg/mL; in assay [1] (setting [13]), 0 pg/mL; in assay [1] (setting [14]), 0 pg/mL; in assay [1] (setting [15]) it was 0 pg/mL; in assay [1] (setting [16]), 0 pg/mL; in assay [1] (setting [17]), 0 pg/mL. The INF-γ production in assay [1] (setting [18]), in assay [1] (setting [19]), in assay [1] (setting [20]) and in assay [1] (setting [21]) was 0 pg/mL throughout. In assay [1], the “Patients in whom peptide-specific HLA-A2-restricted CTL were induced from PBMC” value is recorded as 7%. The “% specific lysis” value in assay [2] (PBMC of colon cancer patient 12, Panc-1, E/T 10:1) came out at 18%.

In the case of “LIMLQNALTT (LLMLQNALTT; Designed peptide having an ability to activate HLA-A2 restricted Cytotoxic T lymphocytes) [Peptide P31, Gene 7 1358-1367]”, the IFN-γ production was 443 pg/mL with OK-CTLp or OK-CTL clone (setting [5]) and 314 pg/mL in the assay with OK-CTLp or OK-CTL clone (concentration of peptide 50 μM).

ELLNRYLYL [Peptide P27]: the IFN-γ production in the assay on OK-CTLp or OK-CTL clone (setting [5]) amounted to 352 pg/mL; in the assay on OK-CTLp or OK-CTL clone (concentration of peptide 1 μM) it was 889 pg/mL; in the assay with OK-CTLp or OK-CTL clone (concentration of peptide 10 μM) it was 250 pg/mL; in the assay with OK-CTLp or OK-CTL clone (concentration of peptide 50 μM) it was 0 pg/mL.

For “CLYGNVEKV (Designed peptide having an ability to activate HLA-A2 restricted Cytotoxic T lymphocytes) [Peptide P7, Gene 2 (HNRPL) 404-412]”, in assay [3], the “Recognition of tumor cells by PBMC stimulated in vitro with peptide (IFN-γ production)” value is “induced CTL recognizing any one of the HLA-A2^+ tumor cells”. Besides, the “IFN-γ production from peripheral blood mononuclear cells in recognition of target cells” value is 0 pg/mL in assay [3] (target CA9-22 (HLA-A0207/24)); 54 pg/mL in assay [3] (target Panc-1 (HLA-A0201/11)); 344 pg/mL in assay [3] (target SW620 (HLA-A0201/24)); 0 pg/mL in assay [4] (target COLO320 (HLA-A24/24)); 0 pg/mL in assay [4] (target QG56 (HLA-A26/26)); 0 pg/mL in assay [4] (target RERF-LC-MS (HLA-A11/11)).

On to “MLPLECQYL (Designed peptide having an ability to activate HLA-A2 restricted Cytotoxic T lymphocytes) [Peptide P12, Gene 3 (WHSC2) 157-165]”, for which the “Recognition of tumor cells by PBMC stimulated in vitro with peptide (IFN-γ production)” value in assay [3] is “induced CTL recognizing any one of the HLA-A2^+ tumor cells”. Moreover, the “IFN-γ production from peripheral blood mononuclear cells in recognition of target cells” value in assay [3] (target CA9-22 (HLA-A0207/24)) was found to be 0 pg/mL; in assay [3] (target Panc-1 (HLA-A0201/11)), 197 pg/mL; in assay [3] (target SW620 (HLA-A0201/24)), 46 pg/mL; in assay [4] (target COLO320 (HLA-A24/24)) it was 40 pg/mL; in assay [4] (target QG56 (HLA-A26/26)), 0 pg/mL; in assay [4] (target RERF-LC-MS (HLA-A11/11)), 0 pg/mL.
